Here are results for 1 compound from patent US6638938B1, “Method for preventing tissue injury from hypoxia” (Cell Therapeutics, Inc., priority 1993, dated 2003).

For test [1], the system named is lungs of mice subjected to hemorrhage and resuscitation. The test can be described thus: lung histology in murine hemorrhage and resuscitation model. The test is classed as in vivo, Balb/C mice. The protocol:
This example illustrates a study of Lisofylline in a murine hemorrhage and resuscitation model. Male Balb/C mice, 8-12 weeks of age, were obtained from Harlan-Sprague Dawley (Indianapolis, Ind.). The animals were kept on a 12 hour light/dark cycle with free access to food and water. With this model, 30% of the calculated blood volume (approximately 0.55 ml for a 20 gram mouse) was withdrawn from a methoxyflurane anesthetized mouse by cardiac puncture over a 60-second period. The blood was collected into a heparinized syringe (5 units heparin), kept at 37° C. for one hour, then reinfused into the mouse through a retroorbital plexus injection. Using this method, one is able to resuscitate all hemorrhaged mice without complication. The total period of methoxyflurane anesthesia is less than 2 minutes in all cases. The mortality rate with this hemorrhage protocol is approximately 12%, with all deaths occurring over the 24 hours post hemorrhage, and most deaths occurring within the one hour post hemorrhage.
Mice were treated with 100 mg/kg Lisofylline in 0.2 ml PBS and given initially i.v., by retroorbital injection, then i.p. every 8 hours for a total of 9 doses. In hemorrhaged mice, the Lisofylline in PBS was added to the shed blood, and then given retroorbitally with the blood during the resuscitation phase. In hemorrhaged Balb/C mice (n=3), sacrificed by exsanguination 5 minutes after receiving Lisofylline with the blood used for resuscitation, serum levels of Lisofylline were 44±6 μg/ml.
At 3 days following hemorrhage and resuscitation or the initiation of Lisofylline treatment, mice were sacrificed and the pulmonary circulation flushed with chilled PBS injected into the right ventricle, as described above. The left lower lobe of the lungs was placed into formalin. Hematoxylin and eosin sections of the lungs were prepared, and examined in a blinded fashion by a pulmonary pathologist who was unaware of the group to which the individual animal belonged. Lungs from normal, unmanipulated Balb/C mice also were included as additional controls. The histopathologic findings were scored on a 0 to 3 scale (with 0 being normal and 3 being the most severe change) for the following variables: a) neutrophil infiltration into the pulmonary interstitium; b) intraaveolar hemorrhage; and c) interstitial edema.
Groups of 6 to 8 mice were used for each condition. For each experimental condition, the whole group of animals was prepared and then studied at the same time. Cells, mRNA, BAL supernatants, and plasma were obtained individually from eachanimal, and then were analyzed individually before calculating group data. Data are presented as mean±standard error of the mean (SEM) for each experimental group. One-way analysis of variance and the Student Newman Keuls test were used for comparisons between normal, nominal treated, hemorrhage/treated and hemorrhage data groups. A P value of less than 0.05 was considered significant.

The test system of test [2] is PA and DAG generation. The following applies: cited from earlier work.
Test [3] concerns TNFα. The test can be described thus: immunohistochemical staining of lung samples for TNFα. It is filed as in vivo. Conditions: hemorrhaged/resuscitated mice or normal mice treated. The source says:
In sections from mice subjected to hemorrhage and resuscitation 3 days previously, staining for TNFα was present, particularly in the perivascular areas.

For test [4], the system named is human neutrophils. The test is described as follows: neutrophil superoxide anion production (cytochrome c reduction). It is filed as cell-based. The source says: (§1) Human recombinant interleukin-1α (IL-1) was obtained from Hoffmann-LaRoche, Inc. (Nutley, N.J.), frozen inaliquots and thawed daily for use. Ketamine hydrochloride was obtained from Parke-Davis (Morris Plains, N.J.), xylazine from Haver (New York, N.J.), ^125I labeled bovine serum albumin (BSA) from ICN Radiochemicals (Irvine, Calif.), and heparin sodium from Elkins-Sinn, Inc. (Cherry Hill, N.J.). All other reagents were purchased from Sigma Chemical Co. (St. Louis, Mo.). Neutrophils were purified from human blood by well described methods. Venous blood was anticoagulated with heparin and the cellular elements were separated from platelet-rich plasma by centrifugation. Cell pellets were resuspended in platelet-poor plasma and diluted 1:4 with 6% dextran (Pharmacia Fine Chemicals, Piscataway, N.J.) in saline. Red cells were separated from leukocytes by sedimentation. Leukocyte-rich supernatants were then aspirated, underlain with Ficoll-Hypaque (Pharmacia Fine Chemicals), and centrifuged at 275×g to separate neutrophils and monocytes. Sedimented neutrophils were resuspended in Hank's balanced salt solution (HBSS). These preparations contained 94 to 96% neutrophils and 4 to 6% monocytes. All values were compared by analysis of variance and corrected by post hoc Student t tests for differences between groups. A p value of <0.05 was considered significant.
Release of superoxide anion by neutrophils was determined spectrophotometrically by measuring superoxide dismutase (SOD) inhibitable reduction of horse heart ferricytochrome C (Sigma Chemical Co., St. Louis, Mo.). Briefly, neutrophils (2×10^6) were placed in tubes containing HBSS (sufficient quantity to 2.0 ml), pooled human serum (1%), and SOD (2.98 mg) with and without Lisofylline. These mixtures were divided in half, and one part was incubated at 37° C. and one part at 4° C. After incubation, reaction mixtures were kept at 4° C. and centrifuged at 800×g for 15 min. Absorbance for paired supernatants was measured at 550 nm using a spectrophotometer (Model 35; Beckman Instruments, Inc., Fullerton, Calif.), averaged, and expressed at nanomoles of SOD-inhibitable cytochrome C reduced/20 min. In some experiments, neutrophils were incubated with PMA.
Neutrophil chemotactic activity was determined by Boyden chamber assay and quantitated as the number of migrating PMN/5HPF using zymosan-activated serum (ZAS) as the chemoattractant (Repine et al., J. Reticuloendo. Soc. 24:217, 1978). Neutrophil adherence was assessed by quantitating the percentage of neutrophils adhering to nylon fibers following addition of phorbol myristate acetate (PMA 10-^6M, Sigma) (Rasp et al., J. Reticuloendo. Soc. 25:101, 1979). Neutrophil superoxide production was determined by quantitating superoxide dismutase inhibitable reduction of cytochrome c in response to PMA (10^−6 M) (Berger et al., J. Infectious Dis. 149:413, 1984).

In test [5] the test system is human neutrophils. The test is described as follows: neutrophil chemotaxis in Boyden chambers to zymosan activated serum. It is filed as cell-based.
Excerpt: as §1, with “Sedimented neutrophils were resuspended in Hank's balanced salt solution (HBSS). These preparations contained 94 to 96% neutrophils and 4 to 6% monocytes. All values were compared by analysis of variance and corrected by post hoc Student t tests for differences between groups. A p value of <0.05 was considered significant.” left out
Each sample was run in triplicate. Unstimulated locomotion was measured using control neutrophils in Hank's Balanced Salt Solution (HBSS) in the top chamber and HBSS in the bottom chamber. Stimulated locomotion was measured using twice-washed neutrophils in HBSS in the top chamber with and without Lisofylline and zymosan-activated serum (ZAS) in the bottom chamber. […] Indices of unstimulated or stimulated locomotion were expressed as the number of neutrophils migrating through the filter in 5 random, high-power objective fields (HPF).
Neutrophil chemotactic activity was determined by Boyden chamber assay and quantitated as the number of migrating PMN/5HPF using zymosan-activated serum (ZAS) as the chemoattractant (Repine et al., J. Reticuloendo. Soc. 24:217, 1978). Neutrophil adherence was assessed by quantitating the percentage of neutrophils adhering to nylon fibers following addition of phorbol myristate acetate (PMA 10-^6M, Sigma) (Rasp et al., J. Reticuloendo. Soc. 25:101, 1979). […]

Setting [6] is: hemorrhaged/resuscitated mice, 100 mg/kg every 8 hours, 9 doses, 3 days, not significantly different from normal.

Structures are written as SMILES.

Consider `C[C@@H](O)CCCCn1c(=O)c2c(ncn2C)n(C)c1=O` [Lisofylline, 1-R-(5-hydroxyhexyl)-3,7-dimethylxanthine], for which the “number of neutrophils in the pulmonary interstitium” value in test [1] (hemorrhaged mice treated, versus hemorrhaged/resuscitated untreated, 3 days) is “significantly decreased”. For the same compound, in test [1] (setting [6]), the “degree of interstitial edema” value is given as “minimal”. The “degree of intraaveolar hemorrhage” value in test [1] (setting [6]) is reported as “minimal”. In addition, the “number of neutrophils in the lungs” value in test [1] (normal mice treated, versus normal untreated) is reported as “significantly increased”. In test [1] (rodent model of hemorrhage and reperfusion), the lung injury result was “completely prevented”. In addition, the “concentrations at which Lisofylline effectively inhibits PA synthesis” value in test [2] is 10 to 30 µM. In addition, in test [3], the “immunohistochemical staining of lung for TNFα” value is on record as “no signal”. For the same compound, the “Neutrophil Superoxide Production in vitro” value in test [4] (Neutrophils + PMA + Lisofylline 0.7 μM) is 9.2 ± 7.8 (4) μM cyto c reduced/30 min; in test [4] (Neutrophils + PMA + Lisofylline 7 μM) it was 82.3 ± 5.2 (4) μM cyto c reduced/30 min; in test [4] (Neutrophils + PMA + Lisofylline 70 μM), 80.6 ± 5.2 (4) μM cyto c reduced/30 min; in test [4] (Neutrophils + PMA + Lisofylline 700 μM), 92.0 ± 1.1 (4) μM cyto c reduced/30 min. In test [4] (PMA 10^-6 M, in vitro, whether reduced), the “neutrophil superoxide anion generation” value was “not”. Further, the “Neutrophil Chemotaxis in Boyden Chambers in vitro” value in test [5] (Neutrophils + ZAS + Lisofylline 1 μM) is 15.0 (2)δ PMN/5HPF; in test [5] (Neutrophils + ZAS + Lisofylline 50 μM), 11.1 (2)δ PMN/5HPF. In test [5] (ZAS as chemoattractant, in vitro), the “stimulated human neutrophil chemotaxis” value is reported as “reduced”.
